Several values for one entry are separate records, joined by “and”; a condition that tells them apart may be missing. Equal entries are not always repeated.
System: 855422-203-R-J1-PDC spheroids with HUVEC/MSC, viability
Assay: Anticancer human tumor 855422-203-R-J1-PDC patient-derived bladder carcinoma cell line growth inhibition [PI3K]
Settings: for viability, T/C: stronger effect = lower value; active means viability on the fitted dose curve at most 10% of control; inactive means the rest
Outline: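 Targeted small molecules plus PI3K inhibitors, half-log dose series from Cmax (default top 10 microM), were applied to heterotypic spheroids of cancer cells with HUVEC and MSCs. Viability indicated growth inhibition.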

[1] = curve of first compound, second compound 0.0316 µM
[2] = curve of first compound, second compound 0.1 µM
[3] = curve of first compound, second compound 0.316 µM
[4] = curve of first compound, second compound 1 µM
[5] = curve of first compound, second compound 3.16 µM
[6] = curve of first compound, second compound 10 µM
[7] = second compound 0.0316 µM, first compound 0.0316 µM
[8] = second compound 0.0316 µM, first compound 0.1 µM
[9] = second compound 0.0316 µM, first compound 0.316 µM
[10] = second compound 0.0316 µM, first compound 1 µM
[11] = second compound 0.0316 µM, first compound 3.16 µM
[12] = second compound 0.0316 µM, first compound 10 µM
[13] = second compound 0.1 µM, first compound 0.0316 µM
[14] = second compound 0.1 µM, first compound 0.1 µM
[15] = second compound 0.1 µM, first compound 0.316 µM
[16] = second compound 0.1 µM, first compound 1 µM
[17] = second compound 0.1 µM, first compound 3.16 µM
[18] = second compound 0.1 µM, first compound 10 µM
[19] = second compound 0.316 µM, first compound 0.0316 µM
[20] = second compound 0.316 µM, first compound 0.1 µM
[21] = second compound 0.316 µM, first compound 0.316 µM
[22] = second compound 0.316 µM, first compound 1 µM
[23] = second compound 0.316 µM, first compound 3.16 µM
[24] = second compound 0.316 µM, first compound 10 µM
[25] = second compound 1 µM, first compound 0.0316 µM
[26] = second compound 1 µM, first compound 0.1 µM
[27] = second compound 1 µM, first compound 0.316 µM
[28] = second compound 1 µM, first compound 1 µM
[29] = second compound 1 µM, first compound 3.16 µM
[30] = second compound 1 µM, first compound 10 µM
[31] = second compound 3.16 µM, first compound 0.0316 µM
[32] = second compound 3.16 µM, first compound 0.1 µM
[33] = second compound 3.16 µM, first compound 0.316 µM
[34] = second compound 3.16 µM, first compound 1 µM
[35] = second compound 3.16 µM, first compound 3.16 µM
[36] = second compound 3.16 µM, first compound 10 µM
[37] = second compound 10 µM, first compound 0.0316 µM
[38] = second compound 10 µM, first compound 0.1 µM
[39] = second compound 10 µM, first compound 0.316 µM
[40] = second compound 10 µM, first compound 1 µM
[41] = second compound 10 µM, first compound 3.16 µM
[42] = second compound 10 µM, first compound 10 µM
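Further: agents incubated with spheroids for one week before read-out.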
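Wherever viability, T/C is given: 100% = DMSO vehicle-treated control wells.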

CCCS(=O)(=O)Nc1ccc(F)c(C(=O)c2c[nH]c3ncc(-c4ccc(Cl)cc4)cc23)c1F
inactive: viability, T/C (compound 0.1 µM) 96.7% [middle of 4 runs] | viability, T/C (compound 0.316 µM) 108% (2×) and 99.2% and 92.2% | viability, T/C (compound 1 µM) 87.6% [middle of 4 runs] | viability, T/C (compound 3.16 µM) 65.7% [middle of 4 runs]
active: viability, T/C (compound 10 µM) 0.53% [middle of 4 runs]
4.16 µM [middle of 4 runs]: IC50 (curve of compound)

CC(=O)c1c(C)c2cnc(Nc3ccc(N4CCNCC4)cn3)nc2n(C2CCCC2)c1=O
inactive: viability, T/C (compound 0.000316 µM) 105% (2×) and 96.8% and 106% | viability, T/C (compound 0.001 µM) 90.8% [middle of 4 runs] | viability, T/C (compound 0.00316 µM) 115% [middle of 4 runs] | viability, T/C (compound 0.01 µM) 100% (2×) and 98.9% and 98.4% | viability, T/C (compound 0.0316 µM) 99% [middle of 4 runs] | viability, T/C (compound 0.1 µM) 83.8% [middle of 4 runs]
> 100 nM: IC50 (curve of compound)

CCCS(=O)(=O)Nc1ccc(F)c(C(=O)c2c[nH]c3ncc(-c4ccc(Cl)cc4)cc23)c1F + CC(Nc1ncnc2nc[nH]c12)c1cc2cccc(Cl)c2c(=O)n1-c1ccccc1
4640 nM: IC50 [4]
inactive: viability, T/C [7] 118% | viability, T/C [8] 88.6% | viability, T/C [9] 102% | viability, T/C [10] 85.9% | viability, T/C [11] 59% | viability, T/C [13] 110% | viability, T/C [14] 109% | viability, T/C [15] 103% | viability, T/C [16] 88.1% | viability, T/C [17] 58.1% | viability, T/C [19] 100% | viability, T/C [20] 97.9% | viability, T/C [21] 90.7% | viability, T/C [22] 88.4% | viability, T/C [23] 70.4% | viability, T/C [25] 92.8% | viability, T/C [26] 98.2% | viability, T/C [27] 98% | viability, T/C [28] 91.6% | viability, T/C [29] 75% | viability, T/C [31] 89.2% | viability, T/C [32] 100% | viability, T/C [33] 99.7% | viability, T/C [34] 78.2% | viability, T/C [35] 70% | viability, T/C [37] 87% | viability, T/C [38] 83.4% | viability, T/C [39] 77.8% | viability, T/C [40] 76.9% | viability, T/C [41] 58.2%
4350 nM: IC50 [3]
3690 nM: IC50 [2] | IC50 [6]
3700 nM: IC50 [1]
active: viability, T/C [12] 0.26% | viability, T/C [18] 0.13% | viability, T/C [24] 0.12% | viability, T/C [30] 0.2% | viability, T/C [36] 0.61% | viability, T/C [42] 0.42%
4240 nM: IC50 [5]

CC(Cn1ccc(-c2ccc(C#N)c(Cl)c2)n1)NC(=O)c1cc(C(C)O)[nH]n1 (stereo not given)
> 10000 nM: IC50 (curve of compound)
inactive: viability, T/C (compound 0.0316 µM) 108% [middle of 4 runs] | viability, T/C (compound 0.1 µM) 96.9% [middle of 4 runs] | viability, T/C (compound 0.316 µM) 110% [middle of 4 runs] | viability, T/C (compound 1 µM) 93.5% [middle of 4 runs] | viability, T/C (compound 3.16 µM) 97.2% [middle of 4 runs] | viability, T/C (compound 10 µM) 86.2% [middle of 4 runs]

Cn1ncc(Cl)c1-c1cc(C(=O)NC(CN)Cc2cccc(F)c2)sc1Cl (stereo not given) + COc1c(OCCCN2CCOCC2)ccc2c3n(c(=NC(=O)c4cnc(N)nc4)nc12)CCN3
inactive: viability, T/C (second compound 0.00316 µM, first compound 0.0316 µM) 88.5% | viability, T/C (second compound 0.00316 µM, first compound 0.1 µM) 73.7% | viability, T/C (second compound 0.00316 µM, first compound 0.316 µM) 63.2% | viability, T/C (second compound 0.00316 µM, first compound 1 µM) 45.5% | viability, T/C (second compound 0.00316 µM, first compound 3.16 µM) 26.9% | viability, T/C (second compound 0.01 µM, first compound 0.0316 µM) 77.8% | viability, T/C (second compound 0.01 µM, first compound 0.1 µM) 69.8% | viability, T/C (second compound 0.01 µM, first compound 0.316 µM) 62% | viability, T/C (second compound 0.01 µM, first compound 1 µM) 42.7% | viability, T/C (second compound 0.01 µM, first compound 3.16 µM) 19.6% | viability, T/C [7] 60.7% | viability, T/C [8] 54.4% | viability, T/C [9] 45.2% | viability, T/C [10] 29.4% | viability, T/C [11] 13% | viability, T/C [13] 27.6% | viability, T/C [14] 27.3% | viability, T/C [15] 19.7% | viability, T/C [16] 15.4%
< 31.6 nM: IC50 [2] | IC50 [3] | IC50 [4]
728 nM: IC50 (curve of first compound, second compound 0.00316 µM)
624 nM: IC50 (curve of first compound, second compound 0.01 µM)
active: viability, T/C (second compound 0.00316 µM, first compound 10 µM) 6.73% | viability, T/C (second compound 0.01 µM, first compound 10 µM) 5.83% | viability, T/C [12] 3.13% | viability, T/C [17] 7.63% | viability, T/C [18] 0.88% | viability, T/C [19] 8.42% | viability, T/C [20] 7.12% | viability, T/C [21] 8.39% | viability, T/C [22] 7.12% | viability, T/C [23] 4.22% | viability, T/C [24] 0.34% | viability, T/C [25] 3.34% | viability, T/C [26] 4.22% | viability, T/C [27] 3.37% | viability, T/C [28] 4.04% | viability, T/C [29] 1.54% | viability, T/C [30] 1.32%
178 nM: IC50 [1]

C#Cc1c(F)ccc2cc(O)cc(-c3ncc4c(N5CC6CCC(C5)N6)nc(OCC56CCCN5CC(F)C6)nc4c3F)c12 (stereo not given)
inactive: viability, T/C (compound 0.0316 µM) 110% [middle of 4 runs] | viability, T/C (compound 0.1 µM) 101% (2×) and 94.4% and 83.5% | viability, T/C (compound 0.316 µM) 109% [middle of 4 runs] | viability, T/C (compound 1 µM) 103% [middle of 4 runs] | viability, T/C (compound 3.16 µM) 109% [middle of 4 runs] | viability, T/C (compound 10 µM) 114% (2×) and 107% and 112%
> 10000 nM: IC50 (curve of compound)

CC1(C)CCC(Nc2ncc(C(F)(F)F)c(-c3c[nH]c4c(P(C)(C)=O)c(C#N)ccc34)n2)CN1 (stereo not given) + CC(Nc1ncnc2nc[nH]c12)c1cc2cccc(Cl)c2c(=O)n1-c1ccccc1
< 31.6 nM: IC50 [1] | IC50 [2] | IC50 [3] | IC50 [4] | IC50 [5] | IC50 [6]
active: viability, T/C [42] 1.26%
inactive: viability, T/C [7] 30.3% | viability, T/C [8] 24.1% | viability, T/C [9] 25% | viability, T/C [10] 26.8% | viability, T/C [11] 28.9% | viability, T/C [12] 3.47% | viability, T/C [13] 27.4% | viability, T/C [14] 25% | viability, T/C [15] 24.6% | viability, T/C [16] 27% | viability, T/C [17] 30.2% | viability, T/C [18] 5.41% | viability, T/C [19] 27.2% | viability, T/C [20] 24.9% | viability, T/C [21] 23.8% | viability, T/C [22] 27.5% | viability, T/C [23] 31.6% | viability, T/C [24] 4.23% | viability, T/C [25] 24.2% | viability, T/C [26] 28.2% | viability, T/C [27] 27.2% | viability, T/C [28] 26.7% | viability, T/C [29] 26% | viability, T/C [30] 5.15% | viability, T/C [31] 23% | viability, T/C [32] 23.1% | viability, T/C [33] 24.6% | viability, T/C [34] 23.9% | viability, T/C [35] 26.6% | viability, T/C [36] 2.74% | viability, T/C [37] 23.8% | viability, T/C [38] 21.4% | viability, T/C [39] 18.8% | viability, T/C [40] 23.7% | viability, T/C [41] 18.9%

CC(Cn1ccc(-c2ccc(C#N)c(Cl)c2)n1)NC(=O)c1cc(C(C)O)[nH]n1 (stereo not given) + Cc1nc(NC(=O)N2CCCC2C(N)=O)sc1-c1ccnc(C(C)(C)C(F)(F)F)c1
< 31.6 nM: IC50 [5] | IC50 [6]
inactive: viability, T/C [7] 110% | viability, T/C [8] 87.1% | viability, T/C [9] 114% | viability, T/C [10] 102% | viability, T/C [11] 102% | viability, T/C [12] 87.5% | viability, T/C [13] 104% | viability, T/C [14] 94.6% | viability, T/C [15] 105% | viability, T/C [16] 91.6% | viability, T/C [17] 98.5% | viability, T/C [18] 89.2% | viability, T/C [19] 91.2% | viability, T/C [20] 88.2% | viability, T/C [21] 94.4% | viability, T/C [22] 89.6% | viability, T/C [23] 98.1% | viability, T/C [24] 86.7% | viability, T/C [25] 71.7% | viability, T/C [26] 76.7% | viability, T/C [27] 73.9% | viability, T/C [28] 77.8% | viability, T/C [29] 81.3% | viability, T/C [30] 62.3% | viability, T/C [31] 44.9% | viability, T/C [32] 45% | viability, T/C [33] 48.5% | viability, T/C [34] 46.5% | viability, T/C [35] 49.9% | viability, T/C [36] 37% | viability, T/C [37] 24.4% | viability, T/C [38] 22.5% | viability, T/C [39] 22% | viability, T/C [40] 26.9% | viability, T/C [41] 28% | viability, T/C [42] 17.4%
> 10000 nM: IC50 [1] | IC50 [2] | IC50 [3] | IC50 [4]
